Laboratory results as given in PubChem BioAssay (NCI).
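GI50 marks 50% less growth. TGI: total growth inhibition.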

Key:
Experiment in all cases: NCI-60 cell line screen, 384-well format
[1] = tested on: 786-0 renal
[2] = tested on: A498 renal
[3] = tested on: A549 NSCLC
[4] = tested on: ACHN renal
[5] = tested on: BT-549 breast
[6] = tested on: CAKI-1 renal
[7] = tested on: CCRF-CEM leukemia
[8] = tested on: COLO 205 colon
[9] = tested on: DU-145 prostate
[10] = tested on: EKVX NSCLC
[11] = tested on: HCC-2998 colon
[12] = tested on: HCT-116 colon
[13] = tested on: HCT-15 colon
[14] = tested on: HL-60(TB) leukemia
[15] = tested on: HOP-62 NSCLC
[16] = tested on: HOP-92 NSCLC
[17] = tested on: HS 578T breast
[18] = tested on: HT29 colon
[19] = tested on: IGROV1 ovarian
[20] = tested on: K-562 leukemia
[21] = tested on: KM12 colon
[22] = tested on: LOX IMVI melanoma
[23] = tested on: M14 melanoma
[24] = tested on: MALME-3M melanoma
[25] = tested on: MCF7 breast
[26] = tested on: MDA-MB-231 breast
[27] = tested on: MDA-MB-435 melanoma
[28] = tested on: MDA-MB-468 breast
[29] = tested on: MOLT-4 leukemia
[30] = tested on: NCI-H226 lung
[31] = tested on: NCI-H23 lung
[32] = tested on: NCI-H322M lung
[33] = tested on: NCI-H460 NSCLC
[34] = tested on: NCI-H522 lung
[35] = tested on: NCI/ADR-RES ovarian
[36] = tested on: OVCAR-3 ovarian
[37] = tested on: OVCAR-4 ovarian
[38] = tested on: OVCAR-5 ovarian
[39] = tested on: PC-3 prostate
[40] = tested on: RPMI-8226 leukemia
[41] = tested on: RXF 393 renal
[42] = tested on: SF-268 CNS
[43] = tested on: SF-295 CNS
[44] = tested on: SF-539 CNS
[45] = tested on: SK-MEL-2 melanoma
[46] = tested on: SK-MEL-28 melanoma
[47] = tested on: SK-MEL-5 melanoma
[48] = tested on: SK-OV-3 ovarian
[49] = tested on: SN12C renal
[50] = tested on: SNB-19 CNS
[51] = tested on: SNB-75 CNS
[52] = tested on: SR leukemia
[53] = tested on: SW-620 colon
[54] = tested on: T-47D breast
[55] = tested on: TK-10 renal
[56] = tested on: U251 glioblastoma
[57] = tested on: UACC-257 melanoma
[58] = tested on: UACC-62 melanoma
[59] = tested on: UO-31 renal

Cc1ccc(/C=N/NC(=O)c2ccccc2Oc2ccccc2)o1
GI50 [1]: 8.44 µM | TGI [1]: 20.8 µM | GI50 [2]: 17.3 µM | TGI [2]: 31.2 µM | GI50 [3]: 17.9 µM | TGI [3]: 31.9 µM | GI50 [4]: 3.35 µM | TGI [4]: 12.2 µM | GI50 [5]: 19.5 µM | TGI [5]: 33.7 µM | GI50 [6]: 17.6 µM | TGI [6]: 31.6 µM | GI50 [7]: 2 µM | TGI [7]: 4.13 µM | GI50 [8]: 5.62 µM | TGI [8]: 17.3 µM | GI50 [9]: 6.77 µM | TGI [9]: 19.9 µM | GI50 [10]: 18.1 µM | TGI [10]: 32.5 µM | GI50 [11]: 17.8 µM | TGI [11]: 31.7 µM | GI50 [12]: 17.7 µM | TGI [12]: 31.6 µM | GI50 [13]: 17.3 µM | TGI [13]: 31.6 µM | GI50 [14]: 19.4 µM | TGI [14]: 33.6 µM | GI50 [15]: 6.21 µM | TGI [15]: 19 µM | GI50 [16]: 4.72 µM | TGI [16]: 16.4 µM | GI50 [17]: 16.6 µM | TGI [17]: 30.3 µM | GI50 [18]: 17.9 µM | TGI [18]: 32 µM | GI50 [19]: 2.49 µM | TGI [19]: 10.7 µM | GI50 [20]: 3.71 µM | TGI [20]: 13.5 µM | GI50 [21]: 0.829 µM | TGI [21]: 19.5 µM | GI50 [22]: 19.5 µM | TGI [22]: 33.7 µM | GI50 [23]: 5.39 µM | TGI [23]: 18 µM | GI50 [24]: 18.6 µM | TGI [24]: 32.7 µM | GI50 [25]: 4.85 µM | TGI [25]: 17.1 µM | GI50 [26]: 18.3 µM | TGI [26]: 34 µM | GI50 [27]: 18.8 µM | TGI [27]: 32.9 µM | GI50 [28]: 1.88 µM | TGI [28]: 3.84 µM | GI50 [29]: 1.75 µM | TGI [29]: 3.2 µM | GI50 [30]: 6.68 µM | TGI [30]: 19.2 µM | GI50 [31]: 4.32 µM | TGI [31]: 16.1 µM | GI50 [32]: 19.1 µM | TGI [32]: 34.5 µM | GI50 [33]: 16.6 µM | TGI [33]: 30.5 µM | GI50 [34]: 16.2 µM | TGI [34]: 29.7 µM | GI50 [35]: 17.5 µM | TGI [35]: 31.7 µM | GI50 [36]: 16.3 µM | TGI [36]: 30.4 µM | GI50 [37]: 10.7 µM | TGI [37]: 24.4 µM | GI50 [38]: 6.64 µM | TGI [38]: 20 µM | GI50 [39]: 17.6 µM | TGI [39]: 32 µM | GI50 [40]: 18.6 µM | TGI [40]: 32.7 µM | GI50 [41]: 16.9 µM | TGI [41]: 30.6 µM | GI50 [42]: 18.9 µM | TGI [42]: 33.3 µM | GI50 [43]: 4.52 µM | TGI [43]: 16.4 µM | GI50 [44]: 18.1 µM | TGI [44]: 32 µM | GI50 [45]: 3.99 µM | TGI [45]: 7.04 µM | GI50 [46]: 18.6 µM | TGI [46]: 32.6 µM | GI50 [47]: 17.1 µM | TGI [47]: 30.9 µM | GI50 [48]: 16.8 µM | TGI [48]: 31.2 µM | GI50 [49]: 4.87 µM | TGI [49]: 17 µM | GI50 [50]: 12.1 µM | TGI [50]: 25 µM | GI50 [51]: 17.1 µM | TGI [51]: 31.1 µM | GI50 [52]: 1.73 µM | TGI [52]: 3.24 µM | GI50 [53]: 19.2 µM | TGI [53]: 33.4 µM | GI50 [54]: 16.2 µM | TGI [54]: 29.8 µM | GI50 [55]: 4.22 µM | TGI [55]: 16.7 µM | GI50 [56]: 18 µM | TGI [56]: 32 µM | GI50 [57]: 17.3 µM | TGI [57]: 31.2 µM | GI50 [58]: 4.66 µM | TGI [58]: 16.5 µM | GI50 [59]: 3.78 µM | TGI [59]: 13.1 µM
